Here are results for 25 compounds from ChEMBL document CHEMBL1125902, “2-aralkoxyadenosines: potent and selective agonists at the coronary artery A2 adenosine receptor” (J Med Chem, 1991).

The target of experiment [1] is T1, Adenosine receptor A1 (Cavia porcellus, UniProt P47745).
T1 sequence (P47745 whole entry): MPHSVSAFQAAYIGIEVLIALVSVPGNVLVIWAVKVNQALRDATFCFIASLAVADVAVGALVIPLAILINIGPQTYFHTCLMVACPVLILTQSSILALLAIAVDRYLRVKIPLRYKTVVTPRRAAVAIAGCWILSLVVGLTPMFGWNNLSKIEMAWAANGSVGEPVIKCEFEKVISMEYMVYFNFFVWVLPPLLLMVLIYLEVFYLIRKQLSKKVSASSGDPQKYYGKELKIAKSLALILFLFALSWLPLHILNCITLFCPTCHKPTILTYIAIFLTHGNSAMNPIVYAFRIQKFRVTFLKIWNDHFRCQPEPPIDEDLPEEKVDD
In words: Effective concentration required for prolongation of the stimulus-QRS interval by 50% of the maximum response at the Adenosine A1 receptor in langendorff guinea pig heart preparation. Type of experiment: functional.

Experiment [2] addresses T1, Adenosine receptor A1. Description: Effective concentration required for prolongation of the stimulus-QRS interval by 50% of the maximum response at the A1 adenosine receptor in langendorff guinea pig heart preparation. The class given is functional.
Experiment [3] addresses T2, Adenosine A2 receptor (Homo sapiens, UniProt P29275+P29274).
Description: Concentration required for coronary arteries vasodilation at the A2 adenosine receptor in langendorff guinea pig heart preparation
In experiment [4] the target is T2, Adenosine A2 receptor. The source holds these as a separate data set.
Description: Concentration required for coronary arteries vasodilation at the Adenosine A2 receptor in langendorff guinea pig heart preparation

In general, EC50 refers to the concentration that produces a half-maximal response. A low value points to a more potent agent. As for `Nc1nc(OCCc2ccc(Cl)cc2)nc2c1ncn2[C@H]1O[C@@H](CO)[C@H](O)[C@@H]1O`, a half-maximal response on Adenosine receptor A1 [1] (EC50) required 14.5 µM.

For the compound `Nc1nc(OCCCc2ccccc2)nc2c1ncn2[C@H]1O[C@@H](CO)[C@H](O)[C@@H]1O`, at Adenosine receptor A1 [2], it took 20 µM to reach a half-maximal effect (EC50). In addition, at Adenosine A2 receptor [3], the “-Log EC50” value was determined as 7.21.

Consider `Nc1nc(OCCc2ccccc2Cl)nc2c1ncn2C1O[C@@H](CO)[C@H](O)[C@@H]1O` (stereo partly drawn), for which the 50% effective concentration (EC50) on Adenosine receptor A1 [2] is 21.9 µM. In addition, at Adenosine A2 receptor [3], the “-Log EC50” value is 8.26.

For `Nc1nc(OCCCCCc2ccccc2)nc2c1ncn2C1O[C@@H](CO)[C@H](O)[C@@H]1O` (stereo partly drawn), the midpoint of the response at Adenosine receptor A1 [2], the EC50, lay at 4.57 µM. Also, on Adenosine A2 receptor [3], the “-Log EC50” value is 8.2.

As for `COc1cccc(CCOc2nc(N)c3ncn(C4O[C@@H](CO)[C@H](O)[C@@H]4O)c3n2)c1` (stereo partly drawn), the “-Log EC50” value at Adenosine A2 receptor [4] was determined as 8.59. On Adenosine receptor A1 [1], this compound showed an EC50 of 16.2 µM.

`Cc1cccc(CCOc2nc(N)c3ncn(C4O[C@@H](CO)[C@H](O)[C@@H]4O)c3n2)c1` (stereo partly drawn): at Adenosine A2 receptor [4], the “-Log EC50” value was found to be 8.8. The same compound showed an EC50 on Adenosine receptor A1 [1] of 12.9 µM.

In turn, `Nc1nc(OCCc2cccc3ccccc23)nc2c1ncn2C1O[C@@H](CO)[C@H](O)[C@@H]1O` (stereo partly drawn) showed a half-maximal effective concentration (EC50) on Adenosine receptor A1 [2] of 8.32 µM.

On to `COc1cc(CCOc2nc(N)c3ncn(C4O[C@@H](CO)[C@H](O)[C@@H]4O)c3n2)cc(OC)c1OC` (stereo partly drawn), for which the “-Log EC50” value at Adenosine A2 receptor [4] is 7.66. This compound also showed an EC50 at Adenosine receptor A1 [1] of 46.8 µM.

As for `COc1ccccc1CCOc1nc(N)c2ncn(C3O[C@@H](CO)[C@H](O)[C@@H]3O)c2n1` (stereo partly drawn), the “-Log EC50” value at Adenosine A2 receptor [4] is listed as 7.5. The compound also showed a concentration giving a half-maximal response (EC50) at Adenosine receptor A1 [1] of 35.5 µM.

As for `Nc1nc(OCCc2c[nH]c3ccccc23)nc2c1ncn2C1O[C@@H](CO)[C@H](O)[C@@H]1O` (stereo partly drawn), the concentration for a half-maximal effect (EC50) on Adenosine receptor A1 [2] is 14.1 µM. The “-Log EC50” value at Adenosine A2 receptor [3] amounted to 8.01.

As to `Nc1nc(OCCCCc2ccccc2)nc2c1ncn2C1O[C@@H](CO)[C@H](O)[C@@H]1O` (stereo partly drawn), on Adenosine receptor A1 [2], the concentration giving a half-maximal response (EC50) was 7.08 µM. Further, the “-Log EC50” value on Adenosine A2 receptor [3] is listed as 8.02.

Regarding `Nc1nc(OCCc2ccsc2)nc2c1ncn2C1O[C@@H](CO)[C@H](O)[C@@H]1O` (stereo partly drawn), at Adenosine A2 receptor [4], the “-Log EC50” value is […]. The EC50 on Adenosine receptor A1 [1] is 18.6 µM.

At Adenosine receptor A1 [2], `COc1ccc(CCOc2nc(N)c3ncn(C4O[C@@H](CO)[C@H](O)[C@@H]4O)c3n2)cc1` (stereo partly drawn) showed an EC50 of 19.5 µM. Besides, the “-Log EC50” value on Adenosine A2 receptor [3] came to 8.85.

For the compound `COc1ccc(CCOc2nc(N)c3ncn(C4O[C@@H](CO)[C@H](O)[C@@H]4O)c3n2)cc1OC` (stereo partly drawn), the “-Log EC50” value at Adenosine A2 receptor [4] is given as 8.31. The same compound gave an EC50 at Adenosine receptor A1 [1] of 42.7 µM.

Regarding `Nc1nc(OCCc2cccs2)nc2c1ncn2C1O[C@@H](CO)[C@H](O)[C@@H]1O` (stereo partly drawn), the “-Log EC50” value on Adenosine A2 receptor [4] turned out to be 8.43. The same compound showed an EC50 on Adenosine receptor A1 [1] of 11.7 µM.

As to `Cc1ccc(CCOc2nc(N)c3ncn(C4O[C@@H](CO)[C@H](O)[C@@H]4O)c3n2)cc1` (stereo partly drawn), on Adenosine A2 receptor [4], the “-Log EC50” value stood at 9.72. For the same compound, the half-maximal effective concentration (EC50) on Adenosine receptor A1 [1] was 7.41 µM.

At Adenosine receptor A1 [2], `Nc1nc(Oc2ccccc2)nc2c1ncn2C1O[C@@H](CO)[C@H](O)[C@@H]1O` (stereo partly drawn) had an EC50 of 46.8 µM. In addition, the “-Log EC50” value on Adenosine A2 receptor [3] is on record as 6.38.

Regarding `Nc1nc(OCCc2cccc(Cl)c2)nc2c1ncn2C1O[C@@H](CO)[C@H](O)[C@@H]1O` (stereo partly drawn), at Adenosine A2 receptor [4], the “-Log EC50” value was 8.52. On Adenosine receptor A1 [1], this compound showed an EC50 of 16.2 µM.

In turn, `Nc1nc(OCCc2ccccc2F)nc2c1ncn2C1O[C@@H](CO)[C@H](O)[C@@H]1O` (stereo partly drawn) had a concentration for a half-maximal effect (EC50) on Adenosine receptor A1 [2] of 35.5 µM. Further, the “-Log EC50” value at Adenosine A2 receptor [3] came to 8.58.

As to `Nc1nc(OCCc2ccc3ccccc3c2)nc2c1ncn2C1O[C@@H](CO)[C@H](O)[C@@H]1O` (stereo partly drawn), at Adenosine A2 receptor [4], the “-Log EC50” value turned out to be 9.3. This compound had an EC50 at Adenosine receptor A1 [1] of 11.5 µM.

`Nc1nc(OCCc2ccc(F)cc2)nc2c1ncn2C1O[C@@H](CO)[C@H](O)[C@@H]1O` (stereo partly drawn) showed an EC50 on Adenosine receptor A1 [2] of 25.7 µM. Also, the “-Log EC50” value on Adenosine A2 receptor [3] was found to be 9.06.

With `Nc1nc(OCCc2cccc(F)c2)nc2c1ncn2C1O[C@@H](CO)[C@H](O)[C@@H]1O` (stereo partly drawn), the midpoint of the response on Adenosine receptor A1 [2], the EC50, lay at 34.7 µM. Moreover, the “-Log EC50” value on Adenosine A2 receptor [3] was 8.72.

In the case of `Nc1nc(OCc2ccccc2)nc2c1ncn2C1O[C@@H](CO)[C@H](O)[C@@H]1O` (stereo partly drawn), the “-Log EC50” value on Adenosine A2 receptor [4] was 6.38. Moreover, a half-maximal effect on Adenosine receptor A1 [1] (EC50) was put at 6.31 µM.

`Nc1nc(OCCc2ccccc2)nc2c1ncn2C1O[C@@H](CO)[C@H](O)[C@@H]1O` (stereo partly drawn) showed an EC50 on Adenosine receptor A1 [2] of 20 µM. The “-Log EC50” value on Adenosine A2 receptor [3] is on record as 8.55.

As to `Cc1ccccc1CCOc1nc(N)c2ncn(C3O[C@@H](CO)[C@H](O)[C@@H]3O)c2n1` (stereo partly drawn), on Adenosine A2 receptor [4], the “-Log EC50” value stood at 8.42. Besides, the response at Adenosine receptor A1 [1] was half-maximal at 25.1 µM (EC50).
